# pEC50: −log10 of the molar value. Calls of active or inactive are those of the source.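 The calls were made as follows: active = half-effect dose EC50 at most 10 µM and% response shifting 30% or more across doses, valid fit; inactive = the rest.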
# Target: GTPase HRas (Homo sapiens) (UniProt P01112)
# Experiment: inhibition of Bodipy-GTP binding to H-Ras wt – biochemical, multiplex bead flow cytometry, round 1, SAR follow-up (AID 588388)
# Conditions: GST-H-Ras beads, EDTA
# Sequence of GTPase HRas (Homo sapiens) (P01112 whole entry, looked up): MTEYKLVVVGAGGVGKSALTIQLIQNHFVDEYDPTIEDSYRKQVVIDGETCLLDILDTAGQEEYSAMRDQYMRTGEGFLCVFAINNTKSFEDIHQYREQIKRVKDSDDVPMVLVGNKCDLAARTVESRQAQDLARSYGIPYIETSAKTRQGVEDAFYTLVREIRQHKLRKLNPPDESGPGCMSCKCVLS
row,Structure (SMILES),pEC50
1,CC1(C)Cc2c(sc(NC(=O)NC(=O)c3ccccc3)c2C(=O)O)CO1,6.83
2,O=C(NC(=S)Nc1sc2c(c1C(=O)O)CCOC2)c1ccccc1,7.48
3,CC1(C)Cc2c(sc(NC(=S)NC(=O)c3ccccc3Br)c2C(=O)O)CO1,7.34
4,COc1ccc(C(=O)NC(=S)Nc2sc3c(c2C(=O)O)CC(C)(C)OC3)cc1,6.97
5,CC1(C)Cc2c(sc(NC(=S)NC(=O)c3cccc(F)c3)c2C(=O)O)CO1,6.54
6,CC1(C)CCc2sc(NC(=S)NC(=O)c3ccccc3)c(C(=O)O)c2C1,7.17
7,CC1Cc2c(sc(NC(=S)NC(=O)c3ccccc3)c2C(=O)O)CO1 (configuration not stated),7.27
8,CC1(C)Cc2c(sc(NC(=S)NC(=O)c3ccccc3)c2C(=O)O)CO1,7.11
9,COc1cccc(C(=O)NC(=S)Nc2sc3c(c2C(=O)O)CC(C)(C)OC3)c1,7.52
10,CC1(C)Cc2c(sc(NC(=S)NC(=O)c3ccccc3F)c2C(=O)O)CO1,7.30
11,CC1(C)Cc2c(sc(NC(=S)NC(=O)c3ccc(Br)cc3)c2C(=O)O)CO1,6.59

# Same assay, conditions: GST-H-Ras beads, EDTA, at 100 µM (top of the series)
row,Structure (SMILES),% response (lower = inhibition)
1,CCOC(=O)c1c(NC(=O)NC(C)(C)C)sc2c1CCN(C)C2,inactive
2,CC1(C)Cc2c(sc(NC(=S)Nc3ccccc3)c2C(=O)O)CO1,inactive
3,CC(C)(C)OC(=O)c1c(NC(=S)NC(=O)c2ccccc2)sc2c1CCOC2,inactive
4,CN1CCc2c(sc3nc(Nc4ccc(F)cc4)oc(=O)c23)C1,inactive
5,CCOC(=O)c1c(NC(=S)NC(=O)c2ccccc2)sc2ccccc12,inactive
6,CN1CCc2c(sc(NC(=O)Nc3ccc(F)cc3)c2C(=O)O)C1,inactive
7,CCOC(=O)c1c(NC(=O)Nc2ccc(C)cc2)sc2c1CCN(C)C2,inactive
8,Cc1ccc(Nc2nc3sc4c(c3c(=O)o2)CCN(C)C4)cc1,inactive
9,CCOC(=O)c1c(NC(=O)Nc2ccc(F)cc2)sc2c1CCN(C)C2,inactive
10,CC1(C)Cc2c(sc(NC(=S)NC(=O)c3cccc(Br)c3)c2C(=O)O)CO1,inactive
11,Cc1ccc(NC(=O)Nc2sc3c(c2C(=O)O)CCN(C)C3)cc1,inactive
12,COC(=O)c1c(N)sc2c1CC(C)(C)OC2,inactive
13,CC1(C)Cc2c(sc(NC(=O)Cc3ccccc3)c2C(=O)O)CO1,inactive
14,COC(=O)c1c(NC(=S)NC(=O)c2ccccc2)sc2c1CC(C)(C)OC2,inactive
15,CCOC(=O)c1c(N)sc2ccccc12,inactive
16,CCOC(=O)c1c(NC(=S)Nc2ccccc2)sc2c1CC(C)(C)OC2,inactive
